Broadly, the melting point is the temperature of the solid-liquid transition.

Series [1] deals with Smn protein. The series can be described thus: Smn protein assay (HTRF) in cultured cells (SMA patient fibroblasts GM03813). The series is classed as cell-based, human. Conditions: 48 hours; for EC1.5x for Smn protein expression: SMA patient fibroblast cells (GM03813), HTRF, 7-point concentration data, concentration producing 1.5 times Smn protein vs DMSO vehicle control; for maximum fold (Fold) increase of Smn protein: SMA patient fibroblast cells, 7-point concentration curve, relative to vehicle control. Put shortly: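 Smn level is expressed as fold over vehicle, from blank-corrected ΔF of the 665/620 nm HTRF ratio. Readout used anti-SMN d2 and kryptate antibodies on RIPA lysates. GM03813 SMA fibroblasts had 48 h exposure at 37° C to seven 3.16-fold compound dilutions, run in triplicate.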
(In TR-FRET formats the signal depends on donor and acceptor labels being close together.)

Series [2] has as its system SMN2 minigene mRNA (SMN2-A minigene construct). The series can be described thus: SMN2 minigene mRNA splicing RT-qPCR assay in cultured cells. The series is classed as cell-based, human. Conditions: Homo sapiens, HEK293-H; HEK293H cells stably transfected with SMN2-A minigene, 24 hours, 7-point concentration data; concentration giving 1.5-fold SMN2 full length mRNA relative to vehicle-treated cells; read-out: EC1.5x for production of full length SMN2 mRNA. Put shortly:
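Full-length SMN2 minigene mRNA, measured by exon 7/luciferase-specific RT-qPCR that excludes endogenous SMN1/SMN2, was normalized to GAPDH and expressed relative to vehicle-treated cells via modified ΔΔCt. Stably transfected HEK293H cells received compound (7-point, 3.16-fold series, duplicates) for 24 h at 37 °C.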
For orientation: Real-time PCR tracks product formation cycle by cycle.

Bounds are passed on as bounds.

`Cl.O=c1oc2nc(N3CCCNCC3)ccc2cc1-c1cn2cccc(F)c2n1` [Cpd 46, 7-(1,4-diazepan-1-yl)-3-(8-fluoroimidazo[1,2-a]pyridin-2-yl)-2H-pyrano[2,3-b]pyridin-2-one hydrochloride] came in with a melting point of 267 to 269 °C. Moreover, in series [1], the “EC1.5x for Smn protein expression” value is “**** (an EC1.5×≦0.3 μM is indicated by four stars (****))”; the “maximum fold (Fold) increase of Smn protein” value (“maximum fold (Fold) increase” for short) was “**** (a fold increase between >1.5 and ≦1.65 is indicated by four stars (****))”. Further, the EC (1.5-fold) in series [2] was at most 0.1 µM.
With `Cc1ccc2nc(-c3cc4ccc(N5CCN(C)[C@@H](C)C5)nc4oc3=O)cn2c1` [Cpd 74, 7-[(3S)-3,4-dimethylpiperazin-1-yl]-3-(6-methylimidazo[1,2-a]pyridin-2-yl)-2H-pyrano[2,3-b]pyridin-2-one], the melting point lay within 248 to 252 °C. In series [1], the “EC1.5x for Smn protein expression” value was “*** (an EC1.5× between >0.3 μM and ≦1 μM is indicated by three stars (***))”; the “maximum fold (Fold) increase” value is “**** (a fold increase between >1.5 and ≦1.65 is indicated by four stars (****))”. Also, the EC (1.5-fold) in series [2] was at most 0.1 µM.
As for `CN1CCCN(c2ccc3cc(-c4cn5cccc(Cl)c5n4)c(=O)oc3n2)CC1` [Cpd 50, 3-(8-chloroimidazo[1,2-a]pyridin-2-yl)-7-(4-methyl-1,4-diazepan-1-yl)-2H-pyrano[2,3-b]pyridin-2-one], the melting point was 245 to 246 °C. Besides, in series [1], the “EC1.5x for Smn protein expression” value is reported as “**** (an EC1.5×≦0.3 μM is indicated by four stars (****))” and the “maximum fold (Fold) increase” value was “***** (a fold increase >1.65 is indicated by five stars (*****))”. Further, in series [2], the EC (1.5-fold) was at most 0.1 µM.
Take `Cc1cc(F)c2nc(-c3cc4ccc(N5CCCNCC5)nc4oc3=O)cn2c1.Cl` [Cpd 107, 7-(1,4-diazepan-1-yl)-3-(8-fluoro-6-methylimidazo[1,2-a]pyridin-2-yl)-2H-pyrano[2,3-b]pyridin-2-one hydrochloride]: the melting point was 276 to 279 °C. Further, in series [1], the “EC1.5x for Smn protein expression” value is “*** (an EC1.5× between >0.3 μM and ≦1 μM is indicated by three stars (***))”; the “maximum fold (Fold) increase” value is “**** (a fold increase between >1.5 and ≦1.65 is indicated by four stars (****))”. Also, the EC (1.5-fold) in series [2] is at most 0.1 µM.
In turn, `Cc1cn2cc(-c3cc4ccc(N5C[C@H](C)N(C)C[C@H]5C)nc4oc3=O)nc2cn1` [Cpd 103, 3-(6-methylimidazo[1,2-a]pyrazin-2-yl)-7-[(2R,5S)-2,4,5-trimethylpiperazin-1-yl]-2H-pyrano[2,3-b]pyridin-2-one] showed a melting point of 248 to 250 °C. Further, in series [1], the “EC1.5x for Smn protein expression” value is “*** (an EC1.5× between >0.3 μM and ≦1 μM is indicated by three stars (***))”; the “maximum fold (Fold) increase” value was “**** (a fold increase between >1.5 and ≦1.65 is indicated by four stars (****))”. The EC (1.5-fold) in series [2] lay within 0.1 to 0.3 µM.
On to `O=c1oc2nc(N3CCN(CC(O)CO)CC3)ccc2cc1-c1nc2c(Cl)cccc2s1` (centres unmarked) [Cpd 22, 3-(4-chloro-1,3-benzothiazol-2-yl)-7-[4-(2,3-dihydroxypropyl)piperazin-1-yl]-2H-pyrano[2,3-b]pyridin-2-one], for which the melting point lay in the range of 216 to 220 °C. Moreover, in series [1], the “EC1.5x for Smn protein expression” value is “*** (an EC1.5× between >0.3 μM and ≦1 μM is indicated by three stars (***))”; the “maximum fold (Fold) increase” value was “**** (a fold increase between >1.5 and ≦1.65 is indicated by four stars (****))”. Besides, in series [2], the EC (1.5-fold) is 0.3 to 1 µM.
On to `CCN1CCN(c2ccc3cc(-c4cn5cc(C)nc(C)c5n4)c(=O)oc3n2)CC1` [Cpd 140, 3-(6,8-dimethylimidazo[1,2-a]pyrazin-2-yl)-7-(4-ethylpiperazin-1-yl)-2H-pyrano[2,3-b]pyridin-2-one], for which the melting point lay within 238 to 241 °C. Moreover, in series [1], the “EC1.5x for Smn protein expression” value is “** (an EC1.5× between >1 and ≦3 μM is indicated by two stars (**))”; the “maximum fold (Fold) increase” value was “**** (a fold increase between >1.5 and ≦1.65 is indicated by four stars (****))”. Moreover, in series [2], the EC (1.5-fold) lay within 0.3 to 1 µM.
As to `O=c1oc2nc(N3CCNCC3)ccc2cc1-c1cn2cccc(F)c2n1` [Cpd 108, 3-(8-fluoroimidazo[1,2-a]pyridin-2-yl)-7-(piperazin-1-yl)-2H-pyrano[2,3-b]pyridin-2-one], the melting point fell in the range of 231 to 235 °C. Also, in series [1], the “EC1.5x for Smn protein expression” value was “**** (an EC1.5×≦0.3 μM is indicated by four stars (****))”; the “maximum fold (Fold) increase” value was “**** (a fold increase between >1.5 and ≦1.65 is indicated by four stars (****))”. Moreover, in series [2], the EC (1.5-fold) was at most 0.1 µM.
Turning to `C[C@@H]1CN(c2ccc3cc(-c4cn5cccc(Cl)c5n4)c(=O)oc3n2)C[C@H](C)N1C` [Cpd 120, 3-(8-chloroimidazo[1,2-a]pyridin-2-yl)-7-[(3R,5S)-3,4,5-trimethylpiperazin-1-yl]-2H-pyrano[2,3-b]pyridin-2-one], the melting point is 241 to 245 °C. In addition, the “maximum fold (Fold) increase” value in series [1] was “*** (a fold increase between >1.35 and ≦1.5 is indicated by three stars (***))”. Also, the EC (1.5-fold) in series [2] is at most 0.1 µM.
In the case of `CCN1CCN(c2ccc3cc(-c4cn5cc(C)nc(C)c5n4)c(=O)oc3n2)C[C@@H]1C` [Cpd 144, 3-(6,8-dimethylimidazo[1,2-a]pyrazin-2-yl)-7-[(3S)-4-ethyl-3-methylpiperazin-1-yl]-2H-pyrano[2,3-b]pyridin-2-one], the melting point was 184 to 190 °C. Besides, in series [1], the “EC1.5x for Smn protein expression” value was “**** (an EC1.5×≦0.3 μM is indicated by four stars (****))”; the “maximum fold (Fold) increase” value was “**** (a fold increase between >1.5 and ≦1.65 is indicated by four stars (****))”. Besides, the EC (1.5-fold) in series [2] was at most 0.1 µM.
As to `CC(C)N1CCN(c2ccc3cc(-c4nc5ccccc5s4)c(=O)oc3n2)CC1` [Cpd 19, 3-(1,3-benzothiazol-2-yl)-7-[4-(propan-2-yl)piperazin-1-yl]-2H-pyrano[2,3-b]pyridin-2-one], the melting point was in the range of 241 to 245 °C. For the same molecule, the “maximum fold (Fold) increase” value in series [1] was “** (a fold increase between >1.2 and ≦1.35 is indicated by two stars (**))”. For the same molecule, the EC (1.5-fold) in series [2] fell in the range of 0.3 to 1 µM.
For the molecule `CN1CCN(c2ccc3cc(-c4cn5cccnc5n4)c(=O)oc3n2)CC1` [Cpd 117, 3-(imidazo[1,2-a]pyrimidin-2-yl)-7-(4-methylpiperazin-1-yl)-2H-pyrano[2,3-b]pyridin-2-one], the melting point was in the range of 266 to 269 °C. Besides, in series [1], the “EC1.5x for Smn protein expression” value is “*** (an EC1.5× between >0.3 μM and ≦1 μM is indicated by three stars (***))”; the “maximum fold (Fold) increase” value was “**** (a fold increase between >1.5 and ≦1.65 is indicated by four stars (****))”. Further, the EC (1.5-fold) in series [2] fell in the range of 0.1 to 0.3 µM.
Molecule `C[C@@H]1CN(c2ccc3cc(-c4cn5cccc(Cl)c5n4)c(=O)oc3n2)C[C@H](C)N1` [Cpd 77, 3-(8-chloroimidazo[1,2-a]pyridin-2-yl)-7-[(3R,5S)-3,5-dimethylpiperazin-1-yl]-2H-pyrano[2,3-b]pyridin-2-one] yielded a melting point of 240 to 242 °C. For the same molecule, in series [1], the “EC1.5x for Smn protein expression” value was “**** (an EC1.5×≦0.3 μM is indicated by four stars (****))” and the “maximum fold (Fold) increase” value is “***** (a fold increase >1.65 is indicated by five stars (*****))”. Further, the EC (1.5-fold) in series [2] was at most 0.1 µM.

The record behind these values is patent publication US9371336B2, “Compounds for treating spinal muscular atrophy” (PTC Therapeutics Inc., priority 2012, dated 2016).
